Measured values: ChEMBL document CHEMBL1909046, “DrugMatrix in vitro pharmacology data”
pIC50: −log10 of the molar value.

How the values were obtained:
[1] = biological target: T1, 5-hydroxytryptamine receptor 1A (Rattus norvegicus, UniProt P19327); assay type: cell membranes, CHO-K1, Membrane; details: cho-k1; further: in other assays of this panel Not Active means under 50% inhibition at 10 µM
T1 sequence (P19327 whole entry): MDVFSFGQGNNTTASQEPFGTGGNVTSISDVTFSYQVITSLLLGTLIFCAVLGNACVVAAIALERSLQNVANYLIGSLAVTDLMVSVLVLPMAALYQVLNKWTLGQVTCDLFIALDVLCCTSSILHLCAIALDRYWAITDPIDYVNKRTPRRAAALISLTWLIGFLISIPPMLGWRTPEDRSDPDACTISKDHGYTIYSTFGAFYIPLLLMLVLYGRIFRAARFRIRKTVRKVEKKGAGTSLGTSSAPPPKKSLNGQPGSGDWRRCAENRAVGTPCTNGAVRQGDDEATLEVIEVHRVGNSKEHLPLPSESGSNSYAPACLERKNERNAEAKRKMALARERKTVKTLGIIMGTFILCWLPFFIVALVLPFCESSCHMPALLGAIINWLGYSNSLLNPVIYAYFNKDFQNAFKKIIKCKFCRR

[2] = biological target: T2, Neuropeptide Y receptor type 2 (Homo sapiens, UniProt P49146); assay type: cell membranes, KAN-TS, Membrane; details: kan-ts; further: in other assays of this panel Not Active means under 50% inhibition at 10 µM
T2 sequence (P49146 whole entry): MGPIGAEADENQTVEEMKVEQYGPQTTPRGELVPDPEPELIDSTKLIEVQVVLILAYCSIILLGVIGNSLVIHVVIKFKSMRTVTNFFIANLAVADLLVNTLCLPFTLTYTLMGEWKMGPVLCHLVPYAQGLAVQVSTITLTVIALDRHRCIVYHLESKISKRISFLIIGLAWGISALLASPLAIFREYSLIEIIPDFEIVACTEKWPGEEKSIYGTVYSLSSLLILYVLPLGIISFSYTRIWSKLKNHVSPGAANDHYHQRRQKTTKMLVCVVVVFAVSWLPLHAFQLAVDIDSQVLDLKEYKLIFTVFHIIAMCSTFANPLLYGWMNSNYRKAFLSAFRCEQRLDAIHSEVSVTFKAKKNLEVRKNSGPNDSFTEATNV

[3] = biological target: C-C chemokine receptor type 5 (Homo sapiens, UniProt P51681); assay type: cell membranes, Membrane; details: hek293; further: in other assays of this panel Not Active means under 50% inhibition at 10 µM
Cytochrome P450 1A2 = biological target: T3, Cytochrome P450 1A2 (Homo sapiens, UniProt P05177); details: bti-tn-5b1-4; further: in other assays of this panel Not Active means under 50% inhibition at 10 µM
T3 sequence (P05177 whole entry): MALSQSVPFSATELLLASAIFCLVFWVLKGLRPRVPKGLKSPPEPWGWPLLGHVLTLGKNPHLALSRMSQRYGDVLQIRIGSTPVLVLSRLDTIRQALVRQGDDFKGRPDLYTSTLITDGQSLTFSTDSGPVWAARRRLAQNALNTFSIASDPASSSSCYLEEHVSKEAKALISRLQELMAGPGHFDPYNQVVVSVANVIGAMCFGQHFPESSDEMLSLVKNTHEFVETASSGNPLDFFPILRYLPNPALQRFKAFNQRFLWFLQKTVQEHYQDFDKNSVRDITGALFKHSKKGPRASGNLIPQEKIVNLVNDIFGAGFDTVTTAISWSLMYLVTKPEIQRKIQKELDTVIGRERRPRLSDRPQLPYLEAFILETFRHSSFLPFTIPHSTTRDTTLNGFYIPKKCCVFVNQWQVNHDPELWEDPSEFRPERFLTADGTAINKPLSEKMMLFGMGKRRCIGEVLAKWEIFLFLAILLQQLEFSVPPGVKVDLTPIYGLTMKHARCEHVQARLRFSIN

[4] = DRUGMATRIX: ATPase, Na+/K+ enzyme inhibition (substrate: ATP); assay type: tissue-based, Sus scrofa, Heart; details: Not Active = under 50% inhibition at 10 µM; for pIC50: read-out: IC50
[5] = biological target: T4, C-C chemokine receptor type 4 (Homo sapiens, UniProt P51679); assay type: cell membranes, Membrane; details: chem-1; further: in other assays of this panel Not Active means under 50% inhibition at 10 µM
T4 sequence (P51679 whole entry): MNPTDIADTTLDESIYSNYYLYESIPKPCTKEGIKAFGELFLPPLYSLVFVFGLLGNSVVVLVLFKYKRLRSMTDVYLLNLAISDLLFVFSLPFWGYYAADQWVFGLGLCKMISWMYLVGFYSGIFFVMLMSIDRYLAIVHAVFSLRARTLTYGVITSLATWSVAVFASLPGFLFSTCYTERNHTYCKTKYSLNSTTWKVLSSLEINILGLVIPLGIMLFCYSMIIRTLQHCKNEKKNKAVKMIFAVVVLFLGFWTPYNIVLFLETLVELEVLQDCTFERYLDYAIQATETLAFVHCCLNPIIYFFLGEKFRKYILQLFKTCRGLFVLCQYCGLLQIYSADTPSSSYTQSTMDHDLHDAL

[6] = biological target: T5, Amine oxidase [flavin-containing] A (Homo sapiens, UniProt P21397); experiment: DRUGMATRIX: Monoamine Oxidase MAO-A enzyme inhibition (substrate: Kynuramine); design: species or system BTI-TN-5B1-4; details: Not Active = under 50% inhibition at 10 µM; for IC50 / Ki: bti-tn-5b1-4
T5 sequence (P21397 whole entry): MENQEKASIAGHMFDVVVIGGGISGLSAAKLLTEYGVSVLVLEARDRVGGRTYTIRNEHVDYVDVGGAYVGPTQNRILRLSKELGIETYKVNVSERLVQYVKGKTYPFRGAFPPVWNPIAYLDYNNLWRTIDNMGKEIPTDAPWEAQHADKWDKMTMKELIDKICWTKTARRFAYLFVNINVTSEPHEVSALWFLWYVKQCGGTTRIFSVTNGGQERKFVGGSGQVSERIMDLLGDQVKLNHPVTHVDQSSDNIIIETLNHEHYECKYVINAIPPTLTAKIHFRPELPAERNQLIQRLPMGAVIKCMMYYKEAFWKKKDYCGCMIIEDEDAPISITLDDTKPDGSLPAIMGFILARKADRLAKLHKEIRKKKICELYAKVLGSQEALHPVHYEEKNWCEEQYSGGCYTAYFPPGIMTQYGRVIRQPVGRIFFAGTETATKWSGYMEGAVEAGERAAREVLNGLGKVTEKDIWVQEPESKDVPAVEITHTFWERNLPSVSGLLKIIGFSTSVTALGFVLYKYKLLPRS

C-C chemokine receptor type 5, sequence (P51681 whole entry): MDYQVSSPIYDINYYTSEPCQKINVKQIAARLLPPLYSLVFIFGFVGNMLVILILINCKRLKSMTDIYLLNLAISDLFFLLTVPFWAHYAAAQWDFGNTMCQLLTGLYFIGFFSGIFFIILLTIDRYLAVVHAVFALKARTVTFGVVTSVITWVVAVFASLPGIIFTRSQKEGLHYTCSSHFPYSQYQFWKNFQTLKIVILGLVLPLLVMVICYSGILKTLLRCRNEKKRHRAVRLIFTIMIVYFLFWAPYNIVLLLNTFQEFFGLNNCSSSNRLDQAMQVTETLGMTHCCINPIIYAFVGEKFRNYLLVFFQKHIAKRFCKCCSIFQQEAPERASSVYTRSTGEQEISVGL

Compound | IC50 [1] | IC50 [2] | IC50 [3] | IC50 (Cytochrome P450 1A2) | Ki (Cytochrome P450 1A2) | IC50 [4] | Ki [4] | IC50 [5] | IC50 [6] | pIC50 ([6]; read-out: IC50) | pIC50 [4] | Ki [1] | Ki [2] | Ki [3] | Ki [5] | Ki [6]
CC(=O)[C@H]1[C@H](C#N)C[C@H]2[C@@H]3CC=C4C[C@@H](O)CC[C@]4(C)[C@H]3CC[C@@]21C [PREGNENOLONE CARBONITRILE] | Not Active | Not Active | Not Active | Not Active | Not Active | Not Active | Not Active | Not Active | Not Active |  |  |  |  |  |  | 
CCCN(CCC)S(=O)(=O)c1ccc(C(=O)O)cc1 [PROBENECID] | Not Active | Not Active | Not Active | Not Active | Not Active | Not Active | Not Active | Not Active | Not Active |  |  |  |  |  |  | 
CCCOc1ccc(C(=O)OCCN(CC)CC)cc1N [PROPARACAINE] | Not Active | Not Active | Not Active | Not Active | Not Active | Not Active | Not Active | Not Active |  | 5.75 |  |  |  |  |  | 
C[C@@H]1O[C@@H](O[C@@H]2C=C3CC[C@@H]4[C@H](CC[C@]5(C)[C@@H](c6ccc(=O)oc6)CC[C@]45O)[C@@]3(C)CC2)[C@H](O)[C@H](O)[C@H]1O [PROSCILLARIDIN] | Not Active | Not Active | Not Active | Not Active | Not Active |  |  | Not Active | Not Active |  | 7.06 |  |  |  |  | 
Oc1cccc(O)c1O [PYROGALLOL] | Not Active | Not Active | Not Active | Not Active | Not Active | Not Active | Not Active | Not Active | Not Active |  |  |  |  |  |  | 
AURANOFIN | Not Active | Not Active | Not Active | Not Active | Not Active | Not Active | Not Active | Not Active | Not Active |  |  | Not Active | Not Active | Not Active | Not Active | Not Active
GADOPENTETATE DIMEGLUMINE | Not Active | Not Active | Not Active | Not Active | Not Active | Not Active | Not Active | Not Active | Not Active |  |  | Not Active | Not Active | Not Active | Not Active | Not Active
GENTAMICIN | Not Active | Not Active | Not Active | Not Active | Not Active | Not Active | Not Active | Not Active | Not Active |  |  | Not Active | Not Active | Not Active | Not Active | Not Active
GRAMICIDIN | Not Active | Not Active | Not Active | Not Active | Not Active |  |  | Not Active | Not Active |  | 5.29 | Not Active | Not Active | Not Active | Not Active | Not Active
NYSTATIN | Not Active | Not Active | Not Active | Not Active | Not Active | Not Active | Not Active | Not Active | Not Active |  |  | Not Active | Not Active | Not Active | Not Active | Not Active
